From patent US5041549A, “Heterocyclic spiro compounds and methods for preparing the same” (Yamanouchi Pharmaceutical Co., Ltd., priority 1987, dated 1991) come the findings set out here.

SMILES strings stand for the structures. Read-outs that look alike come from different tables or passages of the source. Bounds are passed on as bounds.

In general, IC50 refers to the point on the concentration scale where inhibition reaches its midpoint.

Series [1] addresses T1, M1-receptor of rat cerebral cortex (Rattus norvegicus, UniProt P08482).
T1 construct: M1 -receptor of rat cerebral cortex; from tissue; host or cells: rat cerebral cortex (membranes of rat brain)
T1 sequence (P08482 1-460): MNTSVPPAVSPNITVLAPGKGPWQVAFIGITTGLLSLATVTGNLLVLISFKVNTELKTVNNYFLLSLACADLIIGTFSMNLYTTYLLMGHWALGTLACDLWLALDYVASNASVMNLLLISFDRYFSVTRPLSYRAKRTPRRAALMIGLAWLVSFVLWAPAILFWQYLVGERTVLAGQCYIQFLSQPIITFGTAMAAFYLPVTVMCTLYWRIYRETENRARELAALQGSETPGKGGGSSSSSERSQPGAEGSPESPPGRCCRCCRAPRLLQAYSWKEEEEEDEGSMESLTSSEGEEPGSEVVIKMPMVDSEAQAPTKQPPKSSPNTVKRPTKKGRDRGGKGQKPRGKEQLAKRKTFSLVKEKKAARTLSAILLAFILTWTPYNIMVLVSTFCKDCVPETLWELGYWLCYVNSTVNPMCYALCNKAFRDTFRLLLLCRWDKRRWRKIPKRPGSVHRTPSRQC
Kind of series: Affinity for muscarinic receptor: [3H]pirenzepine binding to M1-receptor of rat cerebral cortex.

The target in series [2] is M2-receptor of rat cerebellum (Rattus norvegicus, UniProt P10980). As to the kind of experiment: biochemical. The format is binding.
Chain of M2-receptor of rat cerebellum (P10980 whole entry): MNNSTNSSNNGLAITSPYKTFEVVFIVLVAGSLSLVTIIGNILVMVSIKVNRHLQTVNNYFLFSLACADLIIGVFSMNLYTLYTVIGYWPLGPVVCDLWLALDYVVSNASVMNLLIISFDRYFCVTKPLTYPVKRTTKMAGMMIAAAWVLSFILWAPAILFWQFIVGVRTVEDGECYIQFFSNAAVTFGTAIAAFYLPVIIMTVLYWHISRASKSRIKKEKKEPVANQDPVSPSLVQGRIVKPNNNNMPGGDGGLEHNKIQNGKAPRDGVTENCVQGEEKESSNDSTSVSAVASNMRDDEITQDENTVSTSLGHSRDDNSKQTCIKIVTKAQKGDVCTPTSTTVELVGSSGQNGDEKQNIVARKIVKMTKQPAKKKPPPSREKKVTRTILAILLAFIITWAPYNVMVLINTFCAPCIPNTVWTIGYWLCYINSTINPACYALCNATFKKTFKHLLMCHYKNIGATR
For another series, the system named is tremor in mice. Kind of series: Induction of tremor in mice. As to conditions: sc.

Take `CC1OC2(CN3CCC2CC3)CC12SCCS2` (single isomer, unassigned) [Example 33, 5'-Methyl-dispiro[1-azabicyclo[2.2.2]octane-3,2'-oxolane-4',2"-[1.3]dithiolane]]: the IC50 in series [1] came to 0.017 µM; in series [2], 0.31 µM. Besides, the “Dose, the effect of the above 2) (minimum effective dose for causing tremor)” value (from here on “Dose, the effect”) in the series with tremor in mice is over 30 mg/kg.
As to `COC(=O)C1=CCCN(C)C1` [Arecoline, reference compound], the “Dose, the effect” value in the series with tremor in mice was 5 mg/kg.
As to `C=C1CC2(CCN(C)CC2)OC1CC` (centres unmarked) [Example 36, 2-Ethyl-8-methyl-3-methylene-1-oxa-8-azaspiro[4.5]decane], the IC50 in series [1] ([3H]pirenzepine, M1-receptor, rat cerebral cortex, read-out: Receptor-affinity IC50, Pirenzepine binding) worked out at 1.26 µM; in series [2], 8.96 µM. Further, the “Dose, the effect” value in the series on tremor in mice is given as over 30 mg/kg.
Turning to `C=C1CC2(CCN(C)CC2)OC1C` (centres unmarked) [Example 5, 2,8-dimethyl-3-methylene-1-oxa-8-azaspiro[4,5]decane], the IC50 in series [1] turned out to be 3.32 µM; in series [2], 25.1 µM. Besides, in the series with tremor in mice, the “Dose, the effect” value was over 30 mg/kg.
In the same order, the values of `CC1SC2(CCN(C)CC2)CC12SCCS2` (centres unmarked) [Example 22, 10,14-Dimethyl-1,4,13-trithia-10-azadispiro[4.1.5.2]tetradecane] are 0.039 µM, 0.71 µM and over 30 mg/kg.
Taken in the same sequence, the figures for `O=C1CCCN1CC#CCN1CCCC1` [Oxotremorine, reference compound] were 0.068 µM, 0.0049 µM and 0.2 mg/kg.
`CCC1OC2(CCN(C)CC2)CC1=O` (centres unmarked) [Example 15, 2-ethyl-8-methyl-1-oxa-8-azaspiro[4.5]decan-3-one]: the “Dose, the effect” value in the series with tremor in mice is reported as over 30 mg/kg.
As to `CCC1OC2(CCN(C)CC2)CC12OCCS2` (centres unmarked) [Example 29, 14-ethyl-10-methyl-1,13-dioxa-4-thia-10-azadispiro[4.1.5.2]tetradecane], the results for the IC50 in series [1] and in series [2] were 0.049 µM and 0.64 µM, respectively. Besides, the “Dose, the effect” value with tremor in mice is over 30 mg/kg.
